Measurements taken from paper PMC6009935 (Journal of Enzyme Inhibition and Medicinal Chemistry, 2017).
Read-outs that look alike come from different tables or passages of the source.

Columns and labels:
[1] = molecular target: T1, cannabinoid receptors (CBR) (Rattus norvegicus, UniProt P20272); assay: biochemical; assay type: binding
T1 construct: a: performed in rat whole brain membrane homogenates; from tissue; host or cells: Wistar rat whole brain membrane homogenate
Protocol: Tris-HCl, EGTA, NaCl, MgCl2 x 6H2O, GDP, the GTP analogue GTPγS, were purchased from Sigma-Aldrich (Budapest, Hungary). Fatty acid free bovine serum albumin (BSA) was purchased from Serva (Heidelberg, Germany). Naloxone was kindly provided by the company Endo Laboratories DuPont de Nemours (Wilmington, DE, USA). HS665 was provided by Schmidhammer’s group (University of Innsbruck, Austria). […]
purchased from Tocris Bioscience (Bristol, UK).
DMSO. All compounds were stored in 1 mM stock solution at -20 °C. The radiolabelled GTP analogue, [35S]GTPγS (specific activity: 1000 Ci/mmol) were purchased from Hartmann Analytic (Braunschweig, Germany). [3H]DAMGO (specific activity: 38.8 Ci/mmol),12 [3H]IleDelt II (specific activity: 19,6 Ci/mmol), [3H]WIN55,212-2 (specific activity: 13,1 Ci/mmol) and [3H]HS665 (specific activity: 36.62 Ci/mmol),3 were radiolabeled by the Laboratory of Chemical Biology group in BRC (Szeged, Hungary).
For membrane homogenate preparations male and female Wistar rats (250-300 g body weight) and male guinea pigs (~700 g body weight, LAL/HA/BR strain) were used. Rats were housed in the local animal house of BRC (Szeged, Hungary), while guinea pigs were housed in LAB-ÁLL Bt.
(Budapest, Hungary). All the animals were kept in a temperature controlled room (21-24 °C) under a 12:12 light and dark cycle and were provided with water and food ad libitum. All housing and experiments were conducted in accordance with the European Communities Council Directives (2010/63/EU) and the Hungarian Act for the Protection of Animals in Research (XXVIII.tv. 32.§).
The total number of animals as well as their suffering was minimized.
Rat and guinea pig brain membrane homogenate preparation for binding assays Rats and guinea pigs were decapitated and their brains were quickly removed. The brains were prepared for membrane preparation as previously described,4 and partly used for binding experiments and partly were further prepared for the [35S]GTPγS binding experiments. Briefly the brains were homogenized, centrifuged in ice-cold 50 mM Tris-HCl (pH 7.4) buffer and incubated at 37 °C for 30 min in a shaking water-bath. After incubation the centrifugation was repeated as described above and the final pellet was suspended in 50 mM Tris-HCl pH 7.4 buffer containing 0.32 M sucrose, and stored at -80 °C. For the [35S]GTPγS binding experiments the final pellet of rat […]
brain membrane homogenate was suspended in ice-cold TEM (Tris-HCl, EGTA, MgCl2) and stored at -80 °C for further use.
Radioligand competition binding experiments
Aliquots of frozen rat brain membrane homogenates were centrifuged (18 000 rpm, 20 min, 4 °C) to remove sucrose and the pellets were suspended in 50 mM Tris-HCl buffer (pH 7.4). Membranes containing 0.4-0.8 mg/mL of protein were incubated in a final volume of 1 mL in the presence of unlabeled 5, 10 and 9 in increasing concentrations (10-11-10-5 M) in the presence of the appropriate radioligand in ~1 nM concentrations at certain temperature and amount of time depending on the radioligand ([3H]DAMGO and [3H]IleDelt II: 35 °C for 45 min; [3H]HS665: 30 °C, 45 min; [3H]WIN55,212-2: 30 °C for 60 min). Experiments performed with [3H]HS665 where incubated […]
more kappa receptors than the rat brain), while the rest of the radioligands were incubated together with rat whole brain membrane homogenates. Additionally, in experiments performed with […]
increasing concentrations (10-11-10-5 M) together with 50 mM Tris/HCl, 2.5 mM EGTA, 5 mM MgCl2 and 0.5 mg/mL fatty acid free BSA (pH 7.4). The level of non-specific binding was […]
binding was determined in the absence of unlabeled compounds. The reaction was terminated by rapid filtration under vacuum (Brandel M24R Cell Harvester), and washed three times with 5 mL ice-cold 50 mM Tris-HCl or 50 mM Tris/HCl, 2.5 mM EGTA, 5 mM MgCl2, 0.5 % BSA (pH 7.4) in case of [3H]WIN55,212-2. The filtration was accomplished through Whatman GF/C ([3H]DAMGO, [3H]IleDelt II and [3H]HS665) or GF/B ([3H]WIN55,212-2) glass fibers. In case of […]

G-protein = assay: Functional [35S]GTPγS binding assay on rat brain membrane homogenates; assay type: biochemical; settings: rat brain membrane homogenates; for Emax ± S.E.M. (maximal G-protein efficacy): basal activity = 100%; for LogEC50 ± S.E.M. (ligand potency): logarithm of EC50, negative sign printed
Protocol: The experiments were performed by [35S]GTPγS binding assays to control the GDP to GTP exchange of the α-subunit of Gi-protein. […] We examined the opioid receptor binding affinity of 5 in competition binding experiments, using opioid receptor selective radioligands. […]
Functional [35S]GTPγS binding experiments
The functional [35S]GTPγS binding experiments were performed as previously described,5,6 with modifications. Briefly the rat brain membrane homogenates containing ~10 µg/mL protein were incubated at 30 °C for 60 min in Tris-EGTA buffer (pH 7.4) composed of 50 mM Tris-HCl, 1 mM EGTA, 3 mM MgCl2, 100 mM NaCl, containing 20 MBq/0.05 cm3 [35S]GTPγS (0.05 nM) and […]
compound 9 together with excess GDP (30 µM) in a final volume of 1 mL. Total binding was measured in the absence of test compounds, non-specific binding was determined in the presence of 10 µM unlabelled GTPγS. The bound and unbound [35S]GTPγS was separated as described in the […]
competition binding assays section through Whatmann GF/B glass fibers. The radioactivity of the filters was also detected as described above. [35S]GTPγS binding experiments were performed in triplicates and repeated at least three times.
The specific binding of all radiolabeled compounds was calculated by the subtraction of non-specific binding from total binding and was given in percentage. The data was normalized to total specific binding, which was settled 100%, which in case of [35S]GTPγS also represents the basal activity of the G-protein. Experimental data were presented as means ± S.E.M in the function of the applied ligand concentration range in logarithm form. Points were fitted with the professional curve fitting program, GraphPad Prism 5.0 (GraphPad Prism Software Inc., San Diego, CA), using non-linear regression. In the radioligand competition binding assays the ‘One-site competition’, while in [35S]GTPγS binding assays the ‘Sigmoid dose-response’ equation was applied to determine IC50 (unlabeled ligand affinity) and the maximum G-protein efficacy (Emax) and ligand potency (EC50), respectively. For IC50 and EC50 values standard error is only given in their logarithm form by the curve fitting program due to the data representation. In competition binding experiments the Ki value was calculated according to Cheng-Prusoff equation.7 […]
binding assays. In figure B, 5 is indicated again for better comparison. Figures represents the specific binding of [35S]GTPγS in percentage in the presence of increasing concentrations (10-10-10-5 M) of the indicated ligands in rat brain membrane homogenates. “Basal” on the x-axis indicates the basal activity of the monitored G-protein, which is measured in the absence of the compounds and also represents the total specific binding of [35S]GTPγS. The level of basal activity was defined as 100% and is presented with a dotted line. Points represent means ± S.E.M. for at least three experiments performed in triplicate.

[2] = rat whole brain membrane homogenates, Cheng-Prusoff, read-out: Ki, [3H]WIN55,212 (CBR)
[3] = rat whole brain membrane homogenates, logarithm of IC50, negative sign printed, read-out: logIC50 ± S.E.M., [3H]WIN55,212 (CBR) (converted)

T1 sequence (P20272 whole entry): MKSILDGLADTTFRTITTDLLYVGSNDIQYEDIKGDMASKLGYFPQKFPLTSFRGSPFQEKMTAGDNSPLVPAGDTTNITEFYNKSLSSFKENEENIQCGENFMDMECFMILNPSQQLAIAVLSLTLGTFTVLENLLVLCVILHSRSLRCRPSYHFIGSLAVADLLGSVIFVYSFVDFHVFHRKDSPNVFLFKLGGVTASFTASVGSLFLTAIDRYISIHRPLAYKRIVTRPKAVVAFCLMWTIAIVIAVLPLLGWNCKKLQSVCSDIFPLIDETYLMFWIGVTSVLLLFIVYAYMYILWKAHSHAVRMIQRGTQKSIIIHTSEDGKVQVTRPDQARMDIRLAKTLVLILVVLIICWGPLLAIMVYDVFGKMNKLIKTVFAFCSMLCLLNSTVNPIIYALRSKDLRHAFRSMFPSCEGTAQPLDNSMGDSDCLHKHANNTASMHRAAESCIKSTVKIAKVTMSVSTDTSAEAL

Row | Compound | IC50 [1] [nM] | Ki [1] [nM] | EC50 (G-protein) [nM] | Emax ± S.E.M. (maximal G-protein efficacy) (G-protein) [%] | LogEC50 ± S.E.M. (ligand potency) (G-protein) | Ki [1, 2] [nM] | IC50 [1, 3] [nM]
1 | Cc1c(C(=O)NN2CCCCC2)nn(-c2ccc(Cl)cc2Cl)c1-n1cccc1 [Compound 1] | 195 | 126 | 1620 | 26 ± 5.27 | −5.78 ± 0.11 |  | 
2 | Cc1c(C(=O)N2CCN(C(=O)OCc3ccccc3)CC2)nn(-c2ccc(Cl)cc2Cl)c1-n1cccc1 [Compound 2] |  |  | 1540 | 22.95 ± 4.3 | −5.81 ± 0.09 | 710 | 1100
3 | Cc1c(C(=O)NC2CCN(C(=O)OC(C)(C)C)CC2)nn(-c2ccc(Cl)cc2Cl)c1-n1cccc1 [Compound 3] |  |  | 2690 | 12.78 ± 8.48 | −5.57 ± 0.15 | 193 | 295
4 | Cc1c(C(=O)NC2CCCCC2)nn(-c2ccc(Cl)cc2Cl)c1-n1cccc1 [Compound 4] | 575 | 370 | 1870 | 55.95 ± 8.44 | −5.72 ± 0.3 |  | 
5 | Cc1c(C(=O)NN2CCCCC2)nn(-c2ccc(Cl)cc2Cl)c1-c1ccc(Cl)cc1 [Rimonabant, reference compound] |  |  | 2200 | 17.5 ± 5.72 | −5.65 ± 0.12 |  | 
